Reference: patent publication US4851338A, “Method for diagnosing the presence of bacteria” (Biocarb AB, priority 1982, dated 1989)

What was measured:
[1] = tested on: haemagglutination between GRBC and Bordetella pertussis bacteria or fimbriae thereof; assay: Inhibition of haemagglutination of goose erythrocytes (GRBC) with Bordetella pertussis; format: cell-based; details: for minimal effective concentration: Bordetella pertussis, Erythrocyte, 4 h, read-out: Minimum inhibitory concentration
Protocol: In the tests bacteria of the type Bordetella pertussis newly sampled from an individual suffering from whooping cough were used. The bacteria were cultivated on CFA-agar at +37° C. for 18 hours. The bacterial growth was slurried in PBS, pH 7.2 to a density of 1×10^10 bacteria/ml. Fimbriae from the bacterium were obtained in the following manner:
The bacteria were cultivated on Roux flasks with CFA-agar. After incubation at +37° for 24 hours the bacteria were harvested by adding 10 ml PBS/flask and sterile glass balls. The flasks were shaken and the bacterial suspension removed. The bacteria were pelletized by centrifugation (3000×g, +4°, 30 min.). The supernatant was removed by suction. The bacteria were resuspended in 10 ml PBS and the suspension was treated in a Waring blendor 2 x 20 seconds. The suspension was centrifuged (5000×g, +4°, 30 min.) to pelletize the bacteria. The supernatant containing fimbriae was removed by suction. The bacterial pellet is resuspended, treated in a Waring blender and after centrifugation the supernatant is again recovered. The two supernatants are pooled and ammonium sulphate is added to a concentration of 30 %. After stirring the supernatants are allowed to stand at +4° C. for 18 hours, centrifugation then taking place at 5000 ×g. The supernatant was separated and the precipitation was dialyzed against PBS. The solubilized fimbriae fraction was precipitated with ammonium sulphate once more and dialyzed.
Haemagglutination is performed using erythrocytes from geese (GRBC) suspended to a concentration of 3% v/w in PBS. The agglutination tests were carried out so that 50 μl GRBC were mixed with 2-step dilution of antigen 50 μl bacterial suspension or 50 μl fimbriae suspension and 50 μl PBS in microtitre plates. The plates were sealed with Parafilm and incubated at […] for 4 hours and were then recorded. The last well wherein agglutination could be read by the eye is considered as 1 haemagglutinating unit (1 HU).
In the inhibition experiments there were added instead of PBS 50 μl of an oligosaccharide solution, the inhibiting capacity was studied. […]

[2] = tested on: NK-cells activity (lymphocytes) against K-562 cells; assay: Inhibition of NK-cells activity (chromium release cytotoxicity of lymphocytes against K-562); format: cell-based, human; details: for % specific cytotoxicity: ratio 20:1; for cytolytic effect after preincubation with the oligosaccharides: in concentrations down to 0.3 mg/ml
Protocol: Lymphocytes isolated from peripheral blood drained from normal donors have the ability of exerting a cytotoxic, (i.e. cell killing activity against certain types of cells in culture. In the instant example there is used a human leukemia cell line called K-562 as a target cell for such cytolytic activity.
Method: K-562 cells intracellularly labelled with radioactive chromium are incubated with effector cells (lymphocytes) for 4 hours at 37° C. The cytotoxic effect is measured as the quantity of isotope released in relation to remaining isotope in the target cells. For details see Malmstrom, P., Jonsson, Å, and Sjogren, H.O. "Countercurrent distribution of lymphocytes from human peripheral blood in an aqueous two-phase system. II. Separation into subsets of lymphocytes with distinctive functions". Cell Immunol. 53:51-64, 1980. For studying inhibiting substances effector cells (6×10^6 cells/ml) are preincubated with the respective oligosaccharides diluted in cultivating medium for half an hour at 37° C. After washing with centrifugation the effector cells are transferred directly to the target cells.

[3] = tested on: haemagglutination between sheep erythrocytes and S. saprophyticus bacteria (Mc 2 and Mc 194); assay: Inhibition of haemagglutination of sheep erythrocytes with Staphylococcus saprophyticus; format: cell-based; details: for minimal effective concentration: Staphylococcus saprophyticus, Erythrocyte, read-out: Minimum inhibitory con.
Protocol: In the tests the bacteria S. saprophyticus strains, both isolated from urine from patents having urinary tract infection, were used. The bacteria were cultivated in tryptone broth over night, pelletized by means of centrifugation and washed twice with PBS, pH 7.2. Haemagglutination was performed using erythrocytes from sheep obtained from sheep blood and washed twice with 0.85 % saline.
In the haemagglutination-indication experiments microtitre plates (Limbo Sc. Comp. Inc) were used. 25 μl of bacterial suspension were titrated in PBS by two-step titre steps, 25 μl of 1% erythrocyte suspension being then added. The haemagglutination titre was determined after incubation of the plates for 2-4 hours in room temperature.
In the inhibition experiments serial dilutions of the relevant inhibitor (50 μl/well) and 25 μl of bacterial suspension diluted to contain 2 HU haemagglutinating units of bacteria were used. The plates were incubated for 30 minutes at 37° C., 25 μl of the erythrocyte suspension being then added to each well.

S. saprophyticus = assay: Removal of S. saprophyticus from an infected surface (disinfection); set-up: species or system Staphylococcus saprophyticus; details: 0.1 percent by weight aqueous solution, cotton pad
Protocol: A 0.1 percent by weight aqueous solution of the compound β-D-Galp-(1-4)-D-GNAc is prepared and applied by using a cotton pad on a surface infected by S. saprophyticus.

[4] = tested on: adhesion of S. saprophyticus to urinary epithelial cells; assay: Inhibition of adherence of S. saprophyticus to urinary epithelial cells; format: cell-based, Staphylococcus saprophyticus; details: Staphylococcus saprophyticus, Epithelial cell, 0.75 h, read-out: reduction of the number of adhering bacteria
Protocol: Cells from urinary epithelium were suspended in cell cultivation medium RPMI 1640 (Flow Ltd) to a concentration of 10^5 cells/ml.
Microorganisms of the type S. saprophyticus were suspended in RPMI 1640 to a concentration of 10^9 bacteria/ml. Oligosaccharides which were tested for their ability of preventing adhesion of S. saprophyticus to urinary epithelial cells were dissolved in RPMI 1640 to a concentration of 5 mg/ml. In the experiments 1 ml of the oligosaccharide solution was incubated with 0.1 ml bacterial suspension at 37° C. for 30 minutes. Urinary epithelial cells were incubated with the bacterial suspension incubated in advance as described above with oligosaccharide solution for 45 minutes at 37° C. As a control there was used a bacterial suspension preincubated with 1 ml RPMI 1640.
Incubated samples were filtrated through a 12μ filter and washed 3 times with PBS. The filter was pressed against microscope slides for a few seconds, the slides being then fixed in methanol for 10 minutes. The slides were dried in air and coloured with acridine orange for 2 minutes. The slides were washed, dried in air and studies in fluorescence microscope. The number of bacteria per cell was counted. In each experiment 50 cells were counted.

[5] = 0.3 mg/ml oligosaccharide, experiment 1 (without inhibitor 22.3)
[6] = 0.3 mg/ml oligosaccharide, experiment 2 (without inhibitor 32.0)
[7] = 1 mg/ml oligosaccharide, experiment 1 (without inhibitor 22.3)
[8] = 1 mg/ml oligosaccharide, experiment 2 (without inhibitor 32.0)
[9] = 3 mg/ml oligosaccharide, experiment 1 (without inhibitor 22.3)
[10] = 3 mg/ml oligosaccharide, experiment 2 (without inhibitor 32.0)

Compound: CC(=O)N[C@H]1[C@H](O[C@@H]2[C@@H](OC[C@H]3O[C@@H](O[C@H]4[C@H](O)[C@@H](NC(C)=O)C(O)O[C@@H]4CO)[C@@H](O)[C@@H](O)[C@@H]3O)O[C@H](CO)[C@@H](O)[C@@H]2O)O[C@H](CO)[C@@H](O[C@@H]2O[C@H](CO)[C@H](O)[C@H](O)[C@H]2O)[C@@H]1O (stereo partly drawn) [GM1 -penta, β-Galp-(1-4)-β-GNAcp-(1-2)-α-Manp-(1-6)-β-Manp-(1-4)-GNAc]
- minimal effective concentration [1]: 675 µg/mL
- % specific cytotoxicity [2, 5]: 16.8%
- % specific cytotoxicity [2, 6]: 13.9%
- % specific cytotoxicity [2, 7]: 6.5%
- % specific cytotoxicity [2, 8]: 2.7%
- % specific cytotoxicity [2, 9]: -1.4%
- % specific cytotoxicity [2, 10]: 0.0%
- cytolytic effect after preincubation with the oligosaccharides [2]: inhibited
- minimal effective concentration [3]: 250 µg/mL

Compound: CC(=O)N[C@H]1[C@H](O[C@@H]2[C@@H](OC[C@H]3O[C@@H](O[C@H]4[C@H](O)[C@@H](NC(C)=O)C(O)O[C@@H]4CO)[C@@H](O)[C@@H](O[C@H]4O[C@H](CO)[C@@H](O)[C@H](O)[C@@H]4O[C@@H]4O[C@H](CO)[C@@H](O[C@@H]5O[C@H](CO)[C@H](O)[C@H](O)[C@H]5O)[C@H](O)[C@H]4NC(C)=O)[C@@H]3O)O[C@H](CO)[C@@H](O)[C@@H]2O)O[C@H](CO)[C@@H](O[C@@H]2O[C@H](CO)[C@H](O)[C@H](O)[C@H]2O)[C@@H]1O (stereo partly shown) [drawing 7]
- minimal effective concentration [1]: 175 µg/mL

Compound: CC(=O)N[C@H]1C(O)O[C@H](CO)[C@@H](O[C@@H]2O[C@H](CO)[C@H](O)[C@H](O)[C@H]2O)[C@@H]1O (stereo partly drawn) [β-Galp-(1-4)-GNAc]
- removal of the bacterium from the surface (S. saprophyticus): effective removal of the bacterium from the surface
- inhibition at 5000 µg/mL [4]: ~85%
- minimal effective concentration [3]: 300 µg/mL

Compound: Asialofetuin
- Minimum inhibitory concentration ([1]; Inhibition of haemagglutination, 3% GRBC, 2-4 HU bacteria or fimbriae, +44° C., 4 hours): 150 µg/mL
- % specific cytotoxicity [2, 5]: 10%
- % specific cytotoxicity [2, 6]: 15%
- % specific cytotoxicity [2, 7]: 7.0%
- % specific cytotoxicity [2, 8]: 5.0%
- % specific cytotoxicity [2, 9]: 1.5%
- % specific cytotoxicity [2, 10]: 1.0%
- cytolytic effect after preincubation with the oligosaccharides [2]: inhibited
- Minimum inhibitory con. ([3]; Inhibition of haemagglutination, S. saprophyticus Mc 2 and Mc 194, 2 HU bacteria): 125 µg/mL
